According to patent US9079866B2, “Flap modulators” (JANSSEN PHARMACEUTICA NV, priority 2013, dated 2015):
Structures can show the parent of a compound that is named as a salt.

These molecules were tested on leukotriene pathway in human whole blood (LTB4 levels) (assay: Human whole blood assay (A23187-stimulated LTB4)). Details: Homo sapiens, human whole blood diluted 1:1, A23187-stimulated; read-out: LTB4 IC50 1:1.
Assay type: cell-based
Protocol: The ability of the compounds of the present invention to treat a FLAP-mediated disease and/or disorder, or associated symptoms or complications thereof, was determined using the following procedures. Binding assay data represent the average value obtained from two different assay plates, with samples run in duplicate on each plate. Human whole blood assay data represent a single replicate on an assay plate using whole blood from at least one healthy donor.
An in vitro cellular assay was performed using human whole blood collected in heparin-containing tubes, which was used to test the ability of compounds to modulate the leukotriene pathway in human whole blood. The blood was diluted 1:1 in RPMI medium, pre-incubated for 15 min at 37° Celsius with test compounds at various concentrations, and then stimulated with calcium ionophore, A23187 (7 μg/mL), for 30 min at 37° Celsius. The samples were then centrifuged and plasma was removed. The plasma was diluted in assay buffer and LTB4 levels were measured using a commercial kit (Enzo Life Sciences). The concentration of each compound that was required for half-maximal inhibition (modulation) of recombinant enzyme activity (IC50) was calculated by a 4-parameter equation using the program GraphPad Prism (GraphPad software).

| IC50 [µM] | SMILES |
| --- | --- |
| 0.639 | CC1CN(C(=O)c2ccccc2-c2ccc(-c3cnc(N)cn3)c(F)c2)CC(C)O1 (mixture of isomers) [Example 773, 5-{2′-[(2,6-Dimethylmorpholin-4-yl)carbonyl]-3-fluorobiphenyl-4-yl}pyrazin-2-amine (diastereoisomeric mixture)] |
| 0.19 | Nc1ncc(-c2ccc(-c3ccccc3S(=O)(=O)N3CCCC(O)C3)cc2F)cc1F (racemic) [Example 668, (racemic)-1-((4′-(6-Amino-5-fluoropyridin-3-yl)-3′-fluoro-[1,1′-biphenyl]-2-yl)sulfonyl)piperidin-3-ol] |
| 0.241 | Nc1cnc(-c2ccc(-c3cccnc3S(=O)(=O)C3CCNC3)cc2F)cn1 (racemic) [Example 803, racemic 5-(2-Fluoro-4-(2-(pyrrolidin-3-ylsulfonyl)pyridin-3-yl)phenyl)pyrazin-2-amine hydrochloride] |
| 0.0751 | CCC(C)S(=O)(=O)c1ncccc1-c1ccc(-c2cnc(N)nc2)c(F)c1 (racemic) [Example 813, racemic 5-(4-(2-(sec-Butylsulfonyl)pyridin-3-yl)-2-fluorophenyl)pyrimidin-2-amine formate] |
| 0.0209 | CCC(C)S(=O)(=O)c1ncccc1-c1ccc(-c2cnc(N)cn2)c(F)c1 (racemic) [Example 814, racemic 5-(4-(2-(sec-Butylsulfonyl)pyridin-3-yl)-2-fluorophenyl)pyrazin-2-amine formate] |
| 0.037 | CC(O)CNS(=O)(=O)c1ccccc1-c1ccc(-c2cnc(N)c(C#N)n2)c(F)c1 (stereo in doubt) [Example 415, 4′-(5-Amino-6-cyanopyrazin-2-yl)-3′-fluoro-N-[(2R)-2-hydroxypropyl]biphenyl-2-sulfonamide] |

Same assay, conditions: Homo sapiens, human whole blood diluted 1:1 in RPMI, A23187-stimulated LTB4; read-out: LTB4 IC50 1:1

| SMILES | IC50 [µM] |
| --- | --- |
| N#CC1CCCN(S(=O)(=O)c2ccccc2-c2ccc(-c3cnc(N)cn3)c(F)c2)C1 (racemic) [Example 63, racemic 1-{[4′-(5-Aminopyrazin-2-yl)-3′-fluorobiphenyl-2-yl]sulfonyl}piperidine-3-carbonitrile] | 0.028 |
| Nc1cnc(-c2ccc(-c3ccccc3S(=O)(=O)N3CCCC(O)C3)cc2F)cn1 (racemic) [Example 70, racemic 1-{[4′-(5-Aminopyrazin-2-yl)-3′-fluorobiphenyl-2-yl]sulfonyl}piperidin-3-ol] | 0.01 |
| Nc1cnc(-c2ccc(-c3ccccc3S(=O)(=O)N3C[C@H](O)[C@@H](N4CCOCC4)C3)cc2F)cn1 (racemic) [Example 187, Racemic-1-{[4′-(5-Aminopyrazin-2-yl)-3′-fluorobiphenyl-2-yl]sulfonyl}-4-morpholin-4-ylpyrrolidin-3-ol trifluoroacetic acid salt] | 0.069 |
| CC(CO)NS(=O)(=O)c1ccccc1-c1ccc(-c2cnc(N)cn2)c(F)c1 (stereo in doubt) [Example 32, 4′-(5-Aminopyrazin-2-yl)-3′-fluoro-N-[(1S)-2-hydroxy-1-methylethyl]biphenyl-2-sulfonamide] | 0.03 |
| Nc1cnc(-c2ccc(-c3ccccc3S(=O)(=O)NC3Cc4ccccc4C3)cc2F)cn1 [Example 21, 4′-(5-Aminopyrazin-2-yl)-N-(2,3-dihydro-1H-inden-2-yl)-3′-fluorobiphenyl-2-sulfonamide] | 0.035 |
| Nc1cnc(-c2ccc(-c3ccccc3S(=O)(=O)NCCCO)cc2F)cn1 [Example 80, 4′-(5-Aminopyrazin-2-yl)-3′-fluoro-N-(3-hydroxypropyl)biphenyl-2-sulfonamide] | 0.088 |
| Nc1cnc(-c2ccc(-c3ccccc3S(=O)(=O)N3CC[C@@H](N)C3)cc2F)cn1 [Example 92, (R)-5-(2′-((3-Aminopyrrolidin-1-yl)sulfonyl)-3-fluoro-[1,1′-biphenyl]-4-yl)pyrazin-2-amine] | 0.222 |
| CS(=O)(=O)NS(=O)(=O)c1ccccc1-c1ccc(-c2cnc(N)cn2)c(F)c1 [Example 96, 4′-(5-Aminopyrazin-2-yl)-3′-fluoro-N-(methylsulfonyl)biphenyl-2-sulfonamide] | > 10 |
| CC(C)(CCO)NS(=O)(=O)c1ccccc1-c1ccc(-c2cnc(N)cn2)c(F)c1 [Example 102, 4′-(5-Aminopyrazin-2-yl)-3′-fluoro-N-(3-hydroxy-1,1-dimethylpropyl)biphenyl-2-sulfonamide] | 0.035 |
| CC(C)(CO)CNS(=O)(=O)c1ccccc1-c1ccc(-c2cnc(N)cn2)c(F)c1 [Example 103, 4′-(5-Aminopyrazin-2-yl)-3′-fluoro-N-(3-hydroxy-2,2-dimethylpropyl)biphenyl-2-sulfonamide] | 0.017 |
| CN[C@@H]1CCN(S(=O)(=O)c2ccccc2-c2ccc(-c3cnc(N)cn3)c(F)c2)C1 [Example 126, (R)-5-(3-Fluoro-2′-{[3-(methylamino)pyrrolidin-1-yl]sulfonyl}biphenyl-4-yl)pyrazin-2-amine] | 0.572 |
| N#CCCNS(=O)(=O)c1ccccc1-c1ccc(-c2cnc(N)cn2)c(F)c1 [Example 169, 4′-(5-Aminopyrazin-2-yl)-N-(2-cyanoethyl)-3′-fluorobiphenyl-2-sulfonamide] | 0.023 |
| Nc1cnc(-c2ccc(-c3ccccc3S(=O)(=O)N3CCN(c4ncccn4)CC3)cc2F)cn1 [Example 177, 5-{3-Fluoro-2′-[(4-pyrimidin-2-ylpiperazin-1-yl)sulfonyl]biphenyl-4-yl}pyrazin-2-amine] | 0.302 |
| Nc1cnc(-c2ccc(-c3ccccc3S(=O)(=O)NC3(CO)CCCC3)cc2F)cn1 [Example 179, 4′-(5-Aminopyrazin-2-yl)-3′-fluoro-N-[1-(hydroxymethyl)cyclopentyl]biphenyl-2-sulfonamide] | 0.002 |

The next lines start with the values.

| IC50 [µM] | SMILES |
| --- | --- |
| 0.027 | Nc1cnc(-c2ccc(-c3ccccc3S(=O)(=O)N3CCCC(CO)C3)cc2F)cn1 (racemic) [Example 76, racemic (1-{[4′-(5-Aminopyrazin-2-yl)-3′-fluorobiphenyl-2-yl]sulfonyl}piperidin-3-yl)methanol] |
| 0.01 | Nc1cnc(-c2ccc(-c3ccccc3S(=O)(=O)N[C@H]3CCCC[C@@H]3CO)cc2F)cn1 (racemic) [Example 121, racemic (trans)-4′-(5-Aminopyrazin-2-yl)-3′-fluoro-N-[2-(hydroxymethyl)cyclohexyl]biphenyl-2-sulfonamide] |
| 1.19 | CN1CCN([C@@H]2CN(S(=O)(=O)c3ccccc3-c3ccc(-c4cnc(N)cn4)c(F)c3)C[C@H]2O)CC1 (racemic) [Example 188, Racemic-1-{[4′-(5-Aminopyrazin-2-yl)-3′-fluorobiphenyl-2-yl]sulfonyl}-4-(4-methylpiperazin-1-yl)-pyrrolidin-3-ol trifluoroacetic acid salt] |
| 0.01 | CC(NS(=O)(=O)c1ccccc1-c1ccc(-c2cnc3[nH]ccc3n2)c(F)c1)C(F)(F)F (racemic) [Example 376, racemic 3′-Fluoro-4′-(5H-pyrrolo[2,3-b]pyrazin-2-yl)-N-(2,2,2-trifluoro-1-methylethyl)biphenyl-2-sulfonamide] |
| 0.325 | Nc1cnc(-c2ccc(-c3ccccc3S(=O)(=O)N[C@H]3CCCCNC3=O)cc2F)cn1 (stereo in doubt) [Example 28, (S)-4′-(5-Aminopyrazin-2-yl)-3′-fluoro-N-[(3S)-2-oxoazepan-3-yl]biphenyl-2-sulfonamide] |
| 0.048 | C[C@H](NS(=O)(=O)c1ccccc1-c1ccc(-c2cnc(N)cn2)c(F)c1)c1ccccc1 [Example 24, (R)-4′-(5-Aminopyrazin-2-yl)-3′-fluoro-N-[(1R)-1-phenylethyl]biphenyl-2-sulfonamide] |
| 0.023 | C[C@@H](CO)NS(=O)(=O)c1ccccc1-c1ccc(-c2cnc(N)cn2)c(F)c1 [Example 25, (R)-4′-(5-Aminopyrazin-2-yl)-3′-fluoro-N-[(1R)-2-hydroxy-1-methylethyl]biphenyl-2-sulfonamide] |
| 0.128 | Nc1cnc(-c2ccc(-c3ccccc3S(=O)(=O)N3CC[C@H](N)C3)cc2F)cn1 [Example 93, (S)-5-(2′-((3-Aminopyrrolidin-1-yl)sulfonyl)-3-fluoro-[1,1′-biphenyl]-4-yl)pyrazin-2-amine] |
| 0.006 | C[C@@H]([C@@H](O)c1ccccc1)N(C)S(=O)(=O)c1ccccc1-c1ccc(-c2cnc(N)cn2)c(F)c1 [Example 118, 4′-(5-aminopyrazin-2-yl)-3′-fluoro-N-((1S,2S)-1-hydroxy-1-phenylpropan-2-yl)-N-methyl-[1,1′-biphenyl]-2-sulfonamide] |
| 0.016 | Nc1cnc(-c2ccc(-c3ccccc3S(=O)(=O)N3c4ccccc4C[C@H]3CO)cc2F)cn1 [Example 135, (S)-(1-{[4′-(5-Aminopyrazin-2-yl)-3′-fluorobiphenyl-2-yl]sulfonyl}-2,3-dihydro-1H-indol-2-yl)-methanol] |
| 0.005 | Nc1cnc(-c2ccc(-c3ccccc3S(=O)(=O)N[C@H]3c4ccccc4C[C@H]3O)cc2F)cn1 [Example 160, 4′-(5-Aminopyrazin-2-yl)-3′-fluoro-N-((1S,2R)-2-hydroxy-2,3-dihydro-1H-inden-1-yl)-[1,1′-biphenyl]-2-sulfonamide] |
| 0.048 | Nc1cnc(-c2ccc(-c3ccccc3S(=O)(=O)N[C@@H]3c4ccccc4C[C@@H]3O)cc2F)cn1 [Example 161, 4′-(5-Aminopyrazin-2-yl)-3′-fluoro-N-((1R,2S)-2-hydroxy-2,3-dihydro-1H-inden-1-yl)-[1,1′-biphenyl]-2-sulfonamide] |
| 0.01 | Nc1cnc(-c2ccc(-c3ccccc3S(=O)(=O)N3CCN(c4cnccn4)CC3)cc2F)cn1 [Example 176, 5-{3-Fluoro-2′-[(4-pyrazin-2-ylpiperazin-1-yl)sulfonyl]biphenyl-4-yl}pyrazin-2-amine] |
